Experimental data taken from US20240417410A1, “TRICYCLIC COMPOUNDS FOR THE TREATMENT OF CANCER” (Hoffmann-La Roche Inc., priority 2023, published 2024).
Read-outs that look alike come from different tables or passages of the source.

Key:
Assay in all cases: Cell proliferation, CTG 3D, 7 d
Type in all cases: cell-based
AML-193 = conditions: Homo sapiens
Experimental: (§1) On Day-1, cells were plated in 384-well round-bottom ultra-low adhesion plates (cat. Corning 3830, with cell density adjusted according to Table 3. The assay plate was then centrifuged at 1000 rpm for 1 minute to ensure even distribution of cells. The plate was incubated at 37° C. in a 5% CO2 atmosphere (It is worth noting that for SW1271 cell plate, it needs to be incubated in an incubator without additional CO2).
(§2) On Day 0, Example 24 or A122 was added to each well using a Tecan HP D300E dispenser, with a 3-fold dilution across 9 doses. The final concentration of DMSO was normalized to 0.2%. The assay plate was then centrifuged at 1000 rpm for 1 minute and incubated for 7 days.
(§3) On Day 7, CellTiter-Glo (CTG) 3D reagent (Promega G9683) was dispensed into each well of a 384-well plate using a multi-drop dispenser (Thermo Scientific 66413). A liquid handling automation workstation (Bravo with a 384-well head) was used to mix the CTG reagents. Plates were left on a shaker for 30 minutes at 450 rpm, shielded from light.
(§4) For data analysis, the XL-fit software (Supplier: ID Business Solutions Ltd., Software version: XL fit 5.0) was utilized. The percentage of inhibition was calculated using the formula: Inhibition %=(Max-Sample value)/(Max-Min)×100. Curve fitting was performed as follows: For complete dose-response curves, the relative IC50 was reported from the fit. For incomplete curves, if minimal inhibition was greater than 50%, an IC50 less than the lowest compound concentration was reported. If minimal inhibition was between 20% and 50%, the bottom was locked at 0% and the IC50 was reported. If maximal inhibition was less than 50%, an IC50 greater than the highest compound concentration was reported.

BEN = conditions: Homo sapiens, KRAS (WT ampl)
Experimental: as §1, §2, §3, §4

CAL-62 = conditions: Homo sapiens
Experimental: as §1, §2, §3, §4

CFPAC-1 = conditions: Homo sapiens; CFPAC-1, KRAS (G12V)
Experimental: as §1, §2, §3, §4

DLD-1 = conditions: Homo sapiens
Experimental: as §1, §2, §3, §4

HCT-15 = conditions: Homo sapiens
Experimental: as §1, §2, §3, §4

HT-1197 = conditions: Homo sapiens, HT1197
Experimental: as §1, §2, §3, §4

HT1080 = conditions: Homo sapiens, HT-1080
Experimental: as §1, §2, §3, §4

Hs-766T = conditions: Homo sapiens, Hs766T
Experimental: as §1, §2, §3, §4

KMS26 = conditions: Homo sapiens, KMS-26; KMS26, KRAS (WT ampl)
Experimental: as §1, §2, §3, §4

KURAMOCHI = conditions: Homo sapiens, KRAS (WT ampl)
Experimental: as §1, §2, §3, §4

LCLC-97TM1 = conditions: Homo sapiens; LCLC-97TM1, KRAS (G12V)
Experimental: as §1, §2, §3, §4

NCI-H1355 = conditions: Homo sapiens
Experimental: as §1, §2, §3, §4

NCI-H1734 = conditions: Homo sapiens
Experimental: as §1, §2, §3, §4

NCI-H1915 = conditions: Homo sapiens
Experimental: as §1, §2, §3, §4

NCI-H2122 = conditions: Homo sapiens; NCI-H2122, KRAS (G12C)
Experimental: as §1, §2, §3, §4

NCI-H2135 = conditions: Homo sapiens
Experimental: as §1, §2, §3, §4

NCI-H2444 = conditions: Homo sapiens; NCI-H2444, KRAS (G12V)
Experimental: as §1, §2, §3, §4

NCI-H747 = conditions: Homo sapiens
Experimental: as §1, §2, §3, §4

OCI-Ly19 = conditions: Homo sapiens
Experimental: as §1, §2, §3, §4

PANC-1 = conditions: Homo sapiens; PANC-1, KRAS (G12D)
Experimental: as §1, §2, §3, §4

PSN-1 = conditions: Homo sapiens, PSN1
Experimental: as §1, §2, §3, §4

SK-CO-1 = conditions: Homo sapiens; SK-CO-1, KRAS (G12V)
Experimental: as §1, §2, §3, §4

SNU-668 = conditions: Homo sapiens, SNU668
Experimental: as §1, §2, §3, §4

SUM 159PT = conditions: Homo sapiens, HRAS (p.G12D)
Experimental: as §1, §2, §3, §4

SW 900 = conditions: Homo sapiens, SW900; SW 900, KRAS (G12V)
Experimental: as §1, §2, §3, §4

TF-1 = conditions: Homo sapiens
Experimental: as §1, §2, §3, §4

CO[C@@H](C)c1ncc(N2CCN(C)CC2)cc1-c1c2c3cc(cc4c3n1CCC4)-c1csc(n1)C[C@H](NC(=O)[C@H]1[C@H](C)[C@@H]1C)C(=O)N1CCC[C@H](N1)C(=O)OCC(C)(C)C2 (atropisomer, axis not shown; (M)) [Example 24, (1r,2R,3S)-N-[(7S,13S)-(20M)-20-[2-[(1S)-1-methoxyethyl]-5-(4-methylpiperazin-1-yl)-3-pyridyl]-17,17-dimethyl-8,14-dioxo-15-oxa-4-thia-9,21,30,31-tetrazahexacyclo[23.3.1.1^2,5.1^9,13.0^19,27.0^21,26]hentriaconta-1 (28),2,5 (31), 19,25 (29),26-hexaen-7-yl]-2,3-dimethyl-cyclopropanecarboxamide]
IC50 (AML-193; AML-193, NRAS (p.G13V), read-out: IC50): 1.1 nM | IC50 (BEN): 40 nM | IC50 (CAL-62; CAL-62, KRAS (G12R), read-out: IC50): 1.1 nM | IC50 (CFPAC-1): 0.54 nM | IC50 (DLD-1; DLD-1, KRAS (G13D), read-out: IC50): 18 nM | IC50 (HCT-15; HCT-15, KRAS (G13D), read-out: IC50): 100 nM | IC50 (HT-1197; HT-1197, NRAS (p.Q61R), read-out: IC50): 1.4 nM | IC50 (HT1080; HT1080, NRAS (p.Q61K), read-out: IC50): 0.36 nM | IC50 (Hs-766T; Hs-766T, KRAS (Q61H), read-out: IC50): 100 nM | IC50 (KMS26): 50 nM | IC50 (KURAMOCHI): 100 nM | IC50 (LCLC-97TM1): 0.092 nM | IC50 (NCI-H1355; NCI-H1355, KRAS (G13C), read-out: IC50): 22 nM | IC50 (NCI-H1734; NCI-H1734, KRAS (G13C), read-out: IC50): 0.74 nM | IC50 (NCI-H1915; NCI-H1915, HRAS (p.Q61L), read-out: IC50): 3.6 nM | IC50 (NCI-H2122): 0.39 nM | IC50 (NCI-H2135; NCI-H2135, NRAS (p.Q61K), read-out: IC50): 0.71 nM | IC50 (NCI-H2444): 0.17 nM | IC50 (NCI-H747; NCI-H747, KRAS (G13D), read-out: IC50): 0.72 nM | IC50 (OCI-Ly19; OCI-Ly19, NRAS (p.Q61K), read-out: IC50): 1.9 nM | IC50 (PANC-1): 0.95 nM | IC50 (PSN-1; PSN-1, KRAS (G12R), read-out: IC50): 0.85 nM | IC50 (SK-CO-1): 0.18 nM | IC50 (SNU-668; SNU-668, KRAS (Q61K), read-out: IC50): 2 nM | IC50 (SUM 159PT): 4.5 nM | IC50 (SW 900): 0.28 nM | IC50 (TF-1; TF-1, NRAS (p.Q61P), read-out: IC50): 130 nM

CCn1c(-c2cc(N3CCN(C)CC3)cnc2[C@H](C)OC)c2c3cc(ccc31)-c1csc(n1)C[C@H](NC(=O)[C@H]1C[C@@H]1C)C(=O)N1CCC[C@H](N1)C(=O)OCC(C)(C)O2 [Example A122, reference compound]
IC50 (AML-193): 2.1 nM | IC50 (BEN): 43 nM | IC50 (CAL-62; CAL-62): 8.8 nM | IC50 (CFPAC-1): 1.1 nM | IC50 (DLD-1; DLD-1): 20 nM | IC50 (HCT-15; HCT-15): 100 nM | IC50 (HT-1197): 2.5 nM | IC50 (HT1080): 0.49 nM | IC50 (Hs-766T): 100 nM | IC50 (KMS26): 48 nM | IC50 (KURAMOCHI): 100 nM | IC50 (LCLC-97TM1): 0.17 nM | IC50 (NCI-H1355; NCI-H1355): 33 nM | IC50 (NCI-H1734; NCI-H1734): 1.3 nM | IC50 (NCI-H1915; NCI-H1915): 10 nM | IC50 (NCI-H2122): 0.62 nM | IC50 (NCI-H2135): 1.2 nM | IC50 (NCI-H2444): 0.29 nM | IC50 (NCI-H747; NCI-H747): 0.91 nM | IC50 (OCI-Ly19; OCI-LY19): 2.4 nM | IC50 (PANC-1): 0.68 nM | IC50 (PSN-1): 1.2 nM | IC50 (SK-CO-1): 0.33 nM | IC50 (SNU-668): 4.3 nM | IC50 (SUM 159PT): 3 nM | IC50 (SW 900): 0.23 nM | IC50 (TF-1; TF-1): 100 nM
